pEC50: −log10 of the molar value. Read-outs that look alike come from different tables or passages of the source.
How the values were obtained:
[1] = system: Eμ-Myc lymphoma cells, control; assay: cells; details: Mus musculus, 24 h, read-out: apoptosis induction EC50 control
Excerpt: The retroviral plasmids to express human Bcl-2 family members in murine Eμ-Myc lymphoma cells are MSCV-hMCL-1-GFP, MSCV-hBCL-2-GFP, MSCV-hBCL-XL-GFP, MSCV-hBFL-1/A1-GFP, and MSCV-hBCL-w-GFP. To produce viruses, constructs of interest were co-transfected into HEK293T cells with the plasmid encoding the packaging viruses (p-CL-AMPHO provided by Phillip Darcy from Peter MacCallum Cancer Center, Melbourne, Australia) using standard calcium phosphate transient transfection technique. The retroviruses were harvested, filtered and used to infect target cells following standard procedures.
Samples were then centrifuged, washed twice with PBS and analyzed by flow cytometry in a BD LSRFortessa. FACSDiva software was used for data collection and FlowJo software for data analysis.

[2] = system: H1975; assay: Cell viability assay; format: cell-based; details: Homo sapiens, NCI-H1975, 24 h; H1975 (Lung); read-out: AZD5991 24h GI50
Method: (§1) Cells were plated at 3000 cells/well in 384-well white plates in corresponding cell growth media. […] Caspase-3/7 activation was subsequently determined using a Caspase-Glo 3/7 Reagent (Promega) and viability was assayed using the CellTiter-Glo Reagent (Promega) as described in manufacturer’s instructions. Dose–response curves for caspase-3/7 activation and viability were plotted and analyzed (including EC50 and GI50 determination) using GraphPad Prism.

[3] = system: KG1; assay: Cell viability assay; format: cell-based; details: Homo sapiens, KG-1, 24 h; KG1 (AML); read-out: AZD5991 24h GI50
Method: as §1

[4] = system: GIST T1; assay: Cell viability assay; format: cell-based; details: Homo sapiens, GISTT1, 24 h; GIST T1 (GI); read-out: AZD5991 24h GI50
Method: as §1

[5] = system: MM1S; assay: Cell viability assay; format: cell-based; details: Homo sapiens, MM1.S, 24 h; MM1S (MM); read-out: AZD5991 24h GI50
Method: as §1

[6] = system: MV4-11 tumors; assay: MV4-11 subcutaneous mouse xenograft efficacy; format: in vivo, mice; details: for tumor regression (TR): transient
Method: Female C.B.-17 SCID mice and female nude rats were purchased from Charles River Laboratories. […]. All xenograft studies were conducted at our Association for the Assessment and Accreditation of Laboratory Animal Care accredited facility in Waltham, MA in accordance with ethical regulations described in the guidelines established by the internal Institutional Animal Care and Use Committee. […]. In mice, drugs were dosed intravenously in a volume of 5 mL kg^-1 except for venetoclax that was dosed orally in a volume of 10 mL kg^-1. […]. Ten million MV4-11 cells were injected subcutaneously in the right flank of rats in a volume of 0.1 mL. Tumor volumes (measured by caliper), animal body weight, and tumor condition were recorded twice weekly for the duration of the study. The tumor volume was calculated using the formula: length (mm) × width (mm)^2[…]. For efficacy studies, growth inhibition from the start of treatment was assessed by comparison of the differences in tumor volume between control and treated groups. Statistical significance was evaluated using non-parametric, unpaired, two-tailed t-test. For efficacy studies, animals were randomized based on tumor volumes using stratified sampling, and enrolled into control and treatment groups. Dosing began when mean tumor size reached ~230 mm^3 in mice and 900 mm^3 in rats. Mice were euthanized once tumor size reached 2000 mm^3. Mice were excluded from the study upon body weight loss > 10% of the body weight at the initiation of the study. For pharmacokinetic analysis, plasma samples were precipitated and diluted with acetonitrile containing internal standard and analyzed by LC–MS/MS versus a calibration curve of known concentrations.

[7] = system: JVM2; assay: Cell viability assay; format: cell-based; details: Homo sapiens, JVM-2, 24 h; JVM2 (NHL); read-out: AZD5991 24h GI50
Method: as §1

[8] = system: H647; assay: Cell viability assay; format: cell-based; details: Homo sapiens, NCI-H647, 24 h; H647 (Lung); read-out: AZD5991 24h GI50
Method: as §1

[9] = system: 5637; assay: Cell viability assay; format: cell-based; details: 24 h; 5637 (Urology); read-out: AZD5991 24h GI50
Method: as §1

[10] = system: LK2; assay: Cell viability assay; format: cell-based; details: Homo sapiens, LK-2, 24 h; LK2 (Lung); read-out: AZD5991 24h GI50
Method: as §1

[11] = system: WM2664; assay: Cell viability assay; format: cell-based; details: Homo sapiens, WM 266-4, 24 h; WM2664 (Skin); read-out: AZD5991 24h GI50
Method: as §1

[12] = system: NCI-H23 cells depleted of Bak; assay: Caspase-3/7 activation after Bak siRNA; format: cell-based; details: Bak siRNA 72 h, then 6 h treatment
Method: NCI-H23 cells were trypsinized and resuspended in growth medium. SiRNA targeting Bak (cat#S1881, ThermoFisher Scientific) or non-targeting siRNA (cat#4390847, ThermoFisher Scientific), and Lipofectamine RNAiMAX (ThermoFisher Scientific) were mixed in OPTIMEM and incubated at room temperature for 20 min. Next, cell suspension was added to each siRNA master mix, dispensed into each well of a 96-well plate and incubated for 72 h.

[13] = system: Nomo1; assay: Cell viability assay; format: cell-based; details: Homo sapiens, NOMO-1, 24 h; Nomo1 (AML); read-out: AZD5991 24h GI50
Method: as §1

[14] = system: H23; assay: Caspase-3/7 activation assay; format: cell-based; details: Homo sapiens
Method: as §1

[15] = system: MOLM-13 leukemic cells; assay: MOLM-13 disseminated AML model; format: in vivo, mice; details: venetoclax 100 mg kg^−1 p.o. daily, AZD5991 60 mg kg^−1 i.v. weekly, after 10 days
Excerpt: MOLM-13: These studies complied with all relevant ethical regulations described in the guidelines established by GV-SOLAS Institutional Animal Care and Use Committee. Female CIEA-NOG mice were purchased from Taconic. Mice between 5 and 8 weeks old were tail vein injected with five million MOLM-13 cells. Treatment started 3 days after implantation. AZD5991, venetoclax, and vehicle were formulated and administered as mentioned above. Bone marrow and peripheral blood were collected 10 days post-treatment initiation, followed by red cell lysis (ACK lysis buffer), washes with FC buffer (PBS + 2% FCS) and cell staining with AquaZombie live/dead stain (cat#423102, Biolegend) containing antibodies against human CD45 (cat#564105, BDBiosciences) and human HLA-ABC (cat#561346, BDBiosciences) or isotype controls (mIgG1 cat#552834, BDBiosciences; mIgG1 cat#561504, BDBiosciences). Samples were washed with FC buffer and data acquired on an Attune NXT cytometer and analyzed using FlowJo software. Gating was performed on single/live/FCS vs. SSC/HLA-ABC vs. hCD45 double positive cells (Supplementary Figure 8).

[16] = system: TMD8; assay: Cell viability assay; format: cell-based; details: Homo sapiens, 24 h; TMD8 (NHL); read-out: AZD5991 24h GI50
Method: as §1

[17] = system: OCILY7; assay: Cell viability assay; format: cell-based; details: Homo sapiens, OCI-Ly7, 24 h; OCILY7 (NHL); read-out: AZD5991 24h GI50
Method: as §1

[18] = system: Kasumi1; assay: Cell viability assay; format: cell-based; details: Homo sapiens, Kasumi 1, 24 h; Kasumi1 (AML); read-out: AZD5991 24h GI50
Method: as §1

Q: How did the pEC50 [1] turn out when `Cc1c2c(nn1C)CSCc1cc(n(C)n1)CSc1cc(c3ccccc3c1)OCCCc1c(C(=O)O)n(C)c3c-2c(Cl)ccc13` (atropisomer, axis not shown; (Ra)) [(Ra)-7] was run?
A: The pEC50 was 5.97.

Q: What about the GI50 [2] of the same compound?
A: Its GI50 is 17.6 µM.

Q: What about the GI50 [3] of the same compound?
A: Its GI50 is 0.291 µM.

Q: What about the GI50 [4] of the same compound?
A: The GI50 was > 30 µM.

Q: And the GI50 [5]?
A: Its GI50 is 0.348 µM.

Q: And the “tumor regression (TR)” value ([6]; single i.v. dose 10 mg kg^−1, 7 days after treatment)?
A: Its value is 66%.

Q: What about the “tumor regression (TR)” value ([6]; single i.v. dose 30 mg kg^−1, 7 days after treatment) of the same compound?
A: Its value is 93%.

Q: And the “mice with complete TR” value ([6]; single i.v. dose 100 mg kg^−1)?
A: The value was “six out of six”.

Q: And the GI50 [7]?
A: Its GI50 is 0.547 µM.

Q: What about the GI50 [8] of the same compound?
A: The GI50 was > 30 µM.

Q: And the GI50 [9]?
A: The GI50 was 28 µM.

Q: What about the GI50 [10] of the same compound?
A: Its GI50 is > 30 µM.

Q: What about the GI50 [11] of the same compound?
A: The GI50 was 13.2 µM.

Q: And the “caspase-3/7 activation and cell death” value [12]?
A: The value was “confers resistance”.

Q: What about the GI50 [13] of the same compound?
A: The GI50 was 0.021 µM.

Q: What about the pEC50 ([14]; NCI-H23, 6 h, read-out: AZD5991 6h EC50, H23 (Lung), caspase 3/7 activation) of the same compound?
A: Its pEC50 is 6.46.

Q: What about the pEC50 ([14]; NCI-H23, caspase activation, Mcl-1-dependent cell line, read-out: NCI-H23, EC50) of the same compound?
A: Its pEC50 is 6.72.

Q: And the EC50 ([14]; NCI-H23, mean of log transformed data, read-out: NCI-H23 caspase pEC50 (converted))?
A: The EC50 was 0.195 µM.

Q: And the “percentage of HLA-ABC+ hCD45+ leukemic cells in peripheral blood vs. vehicle” value [15]?
A: The value was “significantly reduced”.

Q: And the “percentage of leukemic cells in bone marrow” value [15]?
A: The value was “reduced”.

Q: What about the GI50 [16] of the same compound?
A: The GI50 was 0.535 µM.

Q: What about the GI50 [17] of the same compound?
A: Its GI50 is 0.024 µM.

Q: What about the GI50 [18] of the same compound?
A: The GI50 was 0.133 µM.

— article PMC6297231 (Nature Communications, 2018)
